# Measurements as given in patent US9682126B2, “Postprandial gastrokinetic agent” (ZERIA PHARMACEUTICAL CO., LTD., priority 2013, dated 2017).
# Legend:
# subjects = conditions: motilin continuously administered intravenously to fasting subjects; cited from earlier work
# Suncus murinus [1] = assay: Postprandial motility by co-administration of ghrelin and motilin, ΔMI (Example 3); format: in vivo
# Procedure: Each of Suncus motilin (Scrum Inc., Tokyo, Japan) and human ghrelin (Asubio Pharma Co., Ltd., Hyogo, Japan) was dissolved in PBS containing 0.1% bovine serum albumin.
# Suncus murinus (male, outbred KAT strain, 7 to 39 weeks old, 56 to 91 g) was used for the experiment. The Each animal was bred in a plastic cage provided with an empty can as a nest box under the following conditions: temperature at 23±2° C., illumination between 8:00 and 20:00, and free intake of commercial trout feed (SP, Nippon Formula Feed Mfg Co., Ltd., Yokohama, Japan).
# After 3 hours of fasting, Suncus murinus was anesthetized by an intraperitoneal injection of pentobarbital sodium (50 mg/kg). Through a midline incision, the stomach was exposed outside the body, and a force transducer was fixed via suture in the circular muscle direction of the body of stomach. The wire extending from the force transducer was inserted through the abdominal wall, passed under the skin, and exposed at the back of the neck.
# An intravenous catheter was inserted in the right jugular, and extracorporeally fixed to the back. The catheter was filled with heparinized saline (100 units/mL) to prevent clotting.
# Each of the operated Suncus murinus was allowed to recover for several days.
# Drug administration and measurement of gastric motility were performed in the conscious, free-moving state without anesthesia.
# 2 g of feed was given to each Suncus murinus fastened (for 8 to 10 hours) for 10 minutes. After the intake of feed for 10 minutes, ghrelin (50, 1,000, or 3,000 ng/kg), motilin (300, 500, 1,000, or 3,000 ng/kg), or a mixed solution of ghrelin (15 or 50 ng/kg) and motilin (100, 200, or 300 ng/kg) was intravenously administered through a jugular vein catheter rapidly.
# Amplified analog signals were converted into digital signals by an analog-to-digital converter (ADC-20, Pico Technology Ltd, St Neots, UK), and the digital signals were recorded on a computer.
# Phase III contractions of MMC in conscious Suncus murinus were defined on the basis of those in dogs and humans (that is, clustered contractions with an amplitude of 8 g or more that lasts for 5 minutes or more).
# Gastric motility was quantitated using a motility index (ΔMI). A motility index (ΔMI) based on a drug was calculated using the following equation. ΔMI (%)=(A−C)/B×100 A: AUC of contractions for 10 minutes during which the drug was administered B: AUC of 10-minute spontaneous phase III contractions appeared before administration of the drug C: (AUC of contractions appeared for 5 minutes between 5 and 10 minutes after the intake of feed)×2 (2) Results (FIG. 9) A. Action of Ghrelin Alone
# Suncus murinus [2] = assay: Postprandial gastric motility, force transducer on stomach, motility index MI (Example 1); format: in vivo; conditions: motilin 300 ng/kg iv after 10-min feed intake
# Procedure: Effects of administration of each of ghrelin and motilin and co-administration of ghrelin and motilin on postprandial gastric motility in Suncus murinus were studied. Each of Suncus motilin (Scrum Inc., Tokyo, Japan) and human ghrelin (Asubio Pharma Co., Ltd., Hyogo, Japan) was dissolved in phosphate buffered saline (PBS) containing 0.1% bovine serum albumin. Suncus murinus (male, outbred KAT strain, 8 to 9 weeks old, 73 to 90 g) was used for the experiment. Each animal was bred in a plastic cage provided with an empty can as a nest box under the following conditions: temperature at 23±2° C., illumination between 8:00 and 20:00, and free intake of commercial trout feed (SP, Nippon Formula Feed Mfg Co., Ltd., Yokohama, Japan). After 3 hours of fasting, Suncus murinus was anesthetized by an intraperitoneal injection of pentobarbital sodium (50 mg/kg). Through a midline incision, the stomach was exposed outside the body, and a force transducer was fixed via suture in the circular muscle direction of the body of stomach. […] Amplified analog signals were converted into digital signals by an analog-to-digital converter (ADC-20, Pico Technology Ltd, St Neots, UK), and the digital signals were recorded on a computer. […] Gastric motility was quantitated using a motility index (MI). A motility index (MI) based on a drug was calculated using the following equation. […]
# [3] = motilin 300 ng/kg iv after feed intake
# [4] = motilin 500 ng/kg iv after feed intake
# [5] = motilin 1,000 ng/kg iv after feed intake
# [6] = motilin 3,000 ng/kg iv after feed intake
structure (smiles),measurement,setting,value
CC[C@H](C)[C@H](NC(=O)[C@@H]1CCCN1C(=O)[C@@H](NC(=O)[C@@H](N)Cc1ccccc1)C(C)C)C(=O)N[C@@H](Cc1ccccc1)C(=O)N[C@H](C(=O)N[C@@H](Cc1ccc(O)cc1)C(=O)NCC(=O)N[C@@H](CCC(=O)O)C(=O)N[C@@H](CC(C)C)C(=O)N[C@@H](CCC(N)=O)C(=O)N[C@@H](CCCNC(=N)N)C(=O)N[C@@H](CCSC)C(=O)N[C@@H](CCC(N)=O)C(=O)N[C@@H](CCC(=O)O)C(=O)N[C@@H](CCCCN)C(=O)N[C@@H](CCC(=O)O)C(=O)N[C@@H](CCCNC(=N)N)C(=O)N[C@@H](CC(N)=O)C(=O)N[C@@H](CCCCN)C(=O)NCC(=O)N[C@@H](CCC(N)=O)C(=O)O)[C@@H](C)O [motilin],gastric emptying,subjects,accelerate gastric emptying
same,Motility Index (ΔMI),Suncus murinus [1]; [3],About 4.9%
same,contractions of the body of the stomach,Suncus murinus [1]; [3],did not induce contractions of the body of the stomach
same,Motility Index (ΔMI),Suncus murinus [1]; [4],About 6.8%
same,contractions of the body of the stomach,Suncus murinus [1]; [4],did not induce contractions of the body of the stomach
same,Motility Index (ΔMI),Suncus murinus [1]; [5],About 49.5%
same,phase III-like contractions,Suncus murinus [1]; [5],induced phase III-like contractions
same,Motility Index (ΔMI),Suncus murinus [1]; [6],about 48.3%
same,phase III-like contractions,Suncus murinus [1]; [6],induced phase III-like contractions
same,contractions of the body of the stomach,Suncus murinus [2],did not induce contractions of the body of the stomach
